Experimental data: patent publication US7507547B2, “Screening assays for antioxidants and antiproliferative compounds” (University of Massachusetts, priority 2004, dated 2009)
Where “and” joins values, the source holds several entries; their conditions need not be identical. Identical values can stand only once. Like-named read-outs stand apart in the source and are kept apart here. Square brackets hold non-standard residues; d marks the D form. Peptide text beside a SMILES is read from it. * marks the point of attachment. pGlu = O=C1CC[C@@H](C(=O)O)N1; X1 = O=C(Cc1ccc(O)c(I)c1)*; Nle = CCCC[C@H](N)C(=O)O

What was measured:
β2-adrenergic receptor [1] = molecular target: T1, β2-adrenergic receptor (Homo sapiens, UniProt P07550); test: ^125I-pindolol binding to PC3 cells
T1 construct: endogenous in cells; host or cells: PC3 cells (ATCC)

5-LOX = conditions: range of reported values, various blood cell systems; cited from earlier work
[2] = design: key: +: All of the compounds listed in Table 12 were anticancerous; conditions: from anticancer literature; cited from earlier work
NTR1 [3] = molecular target: T2, NTR1 (Homo sapiens, UniProt P30989); test: ^125I-NT binding to PC3 cells; conditions: for NT Binding Assay: ability to enhance NT binding in PC3 cells; for Efficacy for altering NT binding to NTR: flavonoids
T2 construct: endogenous in cells; host or cells: PC3 cells (ATCC)

bombesin receptor = molecular target: T3, bombesin receptor (Homo sapiens, UniProt P30550); test: ^125I-[Nle14]-bombesin binding to PC3 cells
T3 construct: endogenous in cells; host or cells: PC3 cells (ATCC)

[4] = molecular target: T4, vasopressin (V1a) receptor (Homo sapiens, UniProt P37288); test: ^125I-HOLVA binding to PC3 cells
T4 construct: endogenous in cells; host or cells: PC3 cells (ATCC)

EGF receptor = molecular target: T5, EGF receptor (Homo sapiens, UniProt P00533); test: ^125I-EGF binding to PC3 cells
T5 construct: endogenous in cells; host or cells: PC3 cells (ATCC)

NTR1 [5] = molecular target: T2, NTR1; test: ^125I-NT binding to PC3 cell membranes; conditions: 22° C., 60 minutes
[6] = tested on: NT-induced inositol phosphate (IP) formation in PC3 cells; test: NT-induced IP formation in PC3 cells; assay type: cell-based; conditions: for IC50: Homo sapiens, PC-3; for IP Formation Efficacy (% decrease): maximal % decrease in NT-induced IP formation
β2-adrenergic receptor [7] = molecular target: T1, β2-adrenergic receptor; test: ^125I-pindolol binding to PC3 cell membranes; conditions: 60 μM agent
[8] = molecular target: T4, vasopressin (V1a) receptor; test: ^125I-HOLVA binding to PC3 cell membranes; conditions: 60 μM agent
ERK = test: NT-induced ERK activation in PC3 cells (western blot); assay type: cell-based; conditions: for IC50: Homo sapiens, PC-3, 0.05 h, 3 minutes, 10 nM NT
Method: Anticancer activity was assessed using methods from Hassan et al., Regul. […] Western blotting was used to assess activation of growth pathways. In particular we measured the activation of a MAP-kinase called ERK using antibodies specific for the phosphorylated form. Serum was withdrawn for 24 hours from 80% confluent PC3 cells in 60 mm dishes. Cells were washed in Locke, then exposed for 3 minutes to 10 nM NT as stimulus. Reactions were stopped on ice, and cells were washed in buffer containing phosphatase and protease inhibitors. Cells were extracted into 2×SDS buffer, and proteins were separated by SDS-PAGE using 10% minigels. Proteins were electroeluted onto PVDF, and blots were blocked in non-fat dry milk in TTBS buffer. Blots were incubated with the primary antibody in blocking buffer for 18 hours at 4° C., washed in TTBS, then incubated with horseradish peroxidase-linked secondary antibody for 1 hour at 20° C. Enhanced chemoluminescence was performed according to manufacturer (Santa Cruz) and autoradiographs were scanned for computerized densitometric analysis. The results for the phospho-ERK were normalized by stripping the blots and reprobing with antibodies that measured the total ERK concentration.

[9] = tested on: cancers from skin, pancreas, liver and breast; conditions: Huang et al., 1999; cited from earlier work
PC3 cells = test: NT-induced proliferation of PC3 cells (^3H-thymidine); assay type: cell-based; conditions: for IC50: Homo sapiens, PC-3, 24 hours, 10 nM NT, read-out: IC50 for inhibition of NT-induced proliferation
melanoma cell growth = conditions: Casagrande and Darbon, 2001; cited from earlier work
protein kinase C = conditions: Ferriola et al., 1989; cited from earlier work
[10] = tested on: IP formation in PC3 cells; test: IP formation in PC3 cells in response to ionomycin; assay type: cell-based
Method: Ca^2+-ionophore (ionomycin) stimulated IP formation, reproducing ≅63% of the NT response. […] When added 2 minutes after a maximal dose of NT (30 nM), low doses of ionomycin (2-10 μM) enhanced the NT response. […] In contrast, a maximal dose of ionomycin gave less than additive enhancement of the NT response.

[11] = tested on: ATP-induced IP formation in PC3 cells; conditions: maximal dose (10 μM)
[12] = molecular target: neurotensin-2 receptor (NTR2) (Homo sapiens, UniProt O95665); conditions: read-out: binding affinity; cited from earlier work
[13] = molecular target: neurotensin-1 receptor (NTR1) (Homo sapiens, UniProt P30989); conditions: read-out: binding affinity; cited from earlier work
NTR1 [14] = molecular target: T2, NTR1; test: Cell-surface binding and internalization of ^125I-NT in PC3 cells; assay type: cell-based; conditions: 50 μM agent, 37° C., prebound at 4° C.
[15] = [agent] giving 100% increase in NT binding
[16] = [agent] at which IP formation was decreased by 50%
[17] = [agent] that decreased IP formation by 40%
[18] = 10^5 cpm ^125I-ligand, PC3 cells

T5 sequence (P00533 25-1210): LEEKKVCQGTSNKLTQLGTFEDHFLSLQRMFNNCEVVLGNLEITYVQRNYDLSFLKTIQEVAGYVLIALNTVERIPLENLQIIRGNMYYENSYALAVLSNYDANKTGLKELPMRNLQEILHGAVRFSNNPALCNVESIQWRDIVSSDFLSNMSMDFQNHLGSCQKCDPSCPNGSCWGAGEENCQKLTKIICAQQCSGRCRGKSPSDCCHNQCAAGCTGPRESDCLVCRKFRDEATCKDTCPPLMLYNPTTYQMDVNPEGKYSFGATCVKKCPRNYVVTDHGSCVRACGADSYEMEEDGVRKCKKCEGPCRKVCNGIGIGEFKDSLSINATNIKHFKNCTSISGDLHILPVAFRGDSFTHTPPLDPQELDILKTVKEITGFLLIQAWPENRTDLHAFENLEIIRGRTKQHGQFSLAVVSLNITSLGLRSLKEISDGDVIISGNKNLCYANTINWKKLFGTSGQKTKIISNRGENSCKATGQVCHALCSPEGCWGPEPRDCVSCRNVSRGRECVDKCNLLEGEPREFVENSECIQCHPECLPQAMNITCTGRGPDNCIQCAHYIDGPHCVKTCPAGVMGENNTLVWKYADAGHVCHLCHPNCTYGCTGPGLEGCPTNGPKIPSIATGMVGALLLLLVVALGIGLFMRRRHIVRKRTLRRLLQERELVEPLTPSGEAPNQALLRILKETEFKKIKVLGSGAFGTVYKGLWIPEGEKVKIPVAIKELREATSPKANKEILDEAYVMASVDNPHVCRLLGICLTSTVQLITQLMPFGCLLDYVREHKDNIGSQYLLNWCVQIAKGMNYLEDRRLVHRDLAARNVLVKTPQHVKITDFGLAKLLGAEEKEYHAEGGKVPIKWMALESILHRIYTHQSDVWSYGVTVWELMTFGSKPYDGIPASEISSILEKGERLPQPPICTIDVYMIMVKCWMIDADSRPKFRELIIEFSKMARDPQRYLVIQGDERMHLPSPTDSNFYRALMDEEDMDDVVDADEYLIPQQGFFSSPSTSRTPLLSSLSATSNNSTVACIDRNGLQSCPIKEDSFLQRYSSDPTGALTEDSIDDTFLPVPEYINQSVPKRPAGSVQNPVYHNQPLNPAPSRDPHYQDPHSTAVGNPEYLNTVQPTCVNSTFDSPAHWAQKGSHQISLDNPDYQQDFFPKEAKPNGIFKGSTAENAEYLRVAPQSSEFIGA
T2 sequence (P30989 whole entry): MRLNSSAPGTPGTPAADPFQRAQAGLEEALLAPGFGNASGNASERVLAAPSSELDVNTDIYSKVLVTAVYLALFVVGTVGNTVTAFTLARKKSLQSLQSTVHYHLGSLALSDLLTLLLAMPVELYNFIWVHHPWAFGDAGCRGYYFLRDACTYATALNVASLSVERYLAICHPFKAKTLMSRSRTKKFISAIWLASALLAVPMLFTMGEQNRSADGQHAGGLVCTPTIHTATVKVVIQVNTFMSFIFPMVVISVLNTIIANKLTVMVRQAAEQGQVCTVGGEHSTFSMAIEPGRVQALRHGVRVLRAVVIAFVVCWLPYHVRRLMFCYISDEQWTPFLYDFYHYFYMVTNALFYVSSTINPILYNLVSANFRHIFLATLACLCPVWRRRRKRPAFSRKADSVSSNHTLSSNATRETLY
T3 sequence (P30550 whole entry): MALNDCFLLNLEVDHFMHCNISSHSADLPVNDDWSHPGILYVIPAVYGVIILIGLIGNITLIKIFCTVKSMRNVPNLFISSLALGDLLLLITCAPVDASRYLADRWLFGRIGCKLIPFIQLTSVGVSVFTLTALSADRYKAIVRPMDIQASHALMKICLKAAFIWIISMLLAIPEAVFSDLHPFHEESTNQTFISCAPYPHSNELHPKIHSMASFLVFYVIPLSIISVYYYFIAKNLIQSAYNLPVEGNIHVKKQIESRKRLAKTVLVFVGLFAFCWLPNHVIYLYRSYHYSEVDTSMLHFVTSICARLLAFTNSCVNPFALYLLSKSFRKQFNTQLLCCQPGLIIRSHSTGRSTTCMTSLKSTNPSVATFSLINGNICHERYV
T1 sequence (P07550 whole entry): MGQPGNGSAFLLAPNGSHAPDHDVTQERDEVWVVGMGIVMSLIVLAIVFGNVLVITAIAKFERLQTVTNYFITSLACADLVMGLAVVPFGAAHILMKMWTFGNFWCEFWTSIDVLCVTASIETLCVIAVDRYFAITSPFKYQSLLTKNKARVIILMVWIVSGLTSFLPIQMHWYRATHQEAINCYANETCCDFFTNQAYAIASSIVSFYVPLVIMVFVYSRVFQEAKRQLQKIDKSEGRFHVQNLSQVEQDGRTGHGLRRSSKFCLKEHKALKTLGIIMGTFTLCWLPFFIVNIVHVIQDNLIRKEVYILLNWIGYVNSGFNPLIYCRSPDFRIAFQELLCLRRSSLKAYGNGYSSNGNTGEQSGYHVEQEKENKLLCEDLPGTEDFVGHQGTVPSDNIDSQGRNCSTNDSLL
T4 sequence (P37288 whole entry): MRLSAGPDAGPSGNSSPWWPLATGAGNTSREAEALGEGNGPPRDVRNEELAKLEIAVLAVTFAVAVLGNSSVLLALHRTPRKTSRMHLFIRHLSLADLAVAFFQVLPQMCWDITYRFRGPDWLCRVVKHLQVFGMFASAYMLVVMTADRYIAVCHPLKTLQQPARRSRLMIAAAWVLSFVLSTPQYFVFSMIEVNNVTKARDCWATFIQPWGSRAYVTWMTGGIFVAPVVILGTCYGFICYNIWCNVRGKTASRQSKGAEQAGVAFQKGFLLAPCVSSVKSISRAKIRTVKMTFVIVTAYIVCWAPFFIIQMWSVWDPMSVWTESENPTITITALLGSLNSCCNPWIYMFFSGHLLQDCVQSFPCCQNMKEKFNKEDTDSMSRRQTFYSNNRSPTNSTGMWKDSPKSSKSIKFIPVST
Sequence of neurotensin-2 receptor (NTR2) (O95665 whole entry, species assumed): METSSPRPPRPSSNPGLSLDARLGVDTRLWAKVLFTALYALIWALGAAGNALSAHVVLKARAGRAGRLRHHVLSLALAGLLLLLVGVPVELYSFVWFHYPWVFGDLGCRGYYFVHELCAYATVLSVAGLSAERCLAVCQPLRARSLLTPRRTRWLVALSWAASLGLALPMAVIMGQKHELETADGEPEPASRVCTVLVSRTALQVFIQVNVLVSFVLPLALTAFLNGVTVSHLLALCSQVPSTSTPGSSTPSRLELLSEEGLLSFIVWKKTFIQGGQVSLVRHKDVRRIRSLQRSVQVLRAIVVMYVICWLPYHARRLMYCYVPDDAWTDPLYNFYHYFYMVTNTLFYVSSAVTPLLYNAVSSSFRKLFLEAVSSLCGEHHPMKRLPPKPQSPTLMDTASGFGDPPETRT
Sequence of neurotensin-1 receptor (NTR1) (P30989 whole entry, species assumed): as the sequence (P30989 whole entry) above

## CC(C)c1ccc2c(c1)c(SC(C)(C)C)c(CC(C)(C)C(=O)O)n2Cc1ccc(Cl)cc1 [MK886]
β2-adrenergic receptor [1]; 12 μM agent
  Specific Binding (% control): 105 ± 3 % control
β2-adrenergic receptor [1]; 60 μM agent
  Specific Binding (% control): 102 ± 6 ^ % control
5-LOX
  IC50: 0.1 to 1 µM
[2]
  Anti-cancer: +
NTR1 [3]; LOX blockers
  NT Binding Efficacy % increase: 210 % increase
NTR1 [3]; [15]
  EC50: 18 µM
NTR1 [3]
  NT Binding Assay: +
Bombesin receptor; 12 μM agent
  Specific Binding (% control): 106 ± 5 % control
Bombesin receptor; 60 μM agent
  Specific Binding (% control): 125 ± 7 % control
[4]; 12 μM agent
  Specific Binding (% control): 93 ± 5 % control
[4]; 60 μM agent
  Specific Binding (% control): 67 ± 3 % control
EGF receptor; 12 μM agent
  Specific Binding (% control): 141 ± 7 % control
EGF receptor; 60 μM agent
  Specific Binding (% control): 165 ± 11 % control
EGF receptor; PC3 cells
  Increase in EGF binding: 65%
NTR1 [5]; 10 μM agent
  Specific NT-Binding (% control): 99 ± 3 % control
NTR1 [5]; 25 μM agent
  Specific NT-Binding (% control): 107 ± 4 % control
NTR1 [5]; 75 μM agent
  Specific NT-Binding (% control): 97 ± 4 % control

## COc1ccc(CCCOC(Cn2ccnc2)c2ccc(OC)cc2)cc1 (stereo not drawn) [SKF-96365]
[6]; [16]
  IC50: 26 µM
[6]
  IP Formation Efficacy (% decrease): 69 % decrease
β2-adrenergic receptor [7]
  Binding (% control ± SEM): 18 ± 5 % control
β2-adrenergic receptor [1]
  % crossreaction (direct competition with ^125I-pindolol): ~0.0005%
NTR1 [3]; [agent] at which NT binding was increased by 80%
  EC50: 23 µM
NTR1 [3]; maximal % increase in NT binding observed for each agent
  NT Binding Efficacy % increase: 155 % increase
[8]
  Binding (% control ± SEM): 110 ± 3 % control

## O=C1c2c(O)cc(O)cc2O[C@H](c2ccc(O)c(O)c2)[C@H]1O [taxifolin]
ERK
  Effect on NT-induced ERK activation: inactive
[9]
  Efficacy to inhibit growth of cancers from skin, pancreas, liver and breast: inactive
NTR1 [3]
  Efficacy for altering NT binding to NTR: inactive
PC3 cells
  Effect on NT-induced cell proliferation: inactive
Melanoma cell growth
  Efficacy to inhibit melanoma cell growth: inactive
Protein kinase C
  Efficacy to inhibit protein kinase C: inactive

## C[C@H](CCC(=O)O)C[C@H](C)C[C@H](C)C(=O)/C=C(\O)[C@H](C)C[C@H](C)C/C=C/[C@@H](C)[C@@H](O)[C@@H](C)[C@@H](O)C[C@@H]1CC[C@@](C)([C@H]2CC[C@@](C)([C@@H](C)O)O2)O1 [ionomycin]
[10]
  IP formation as share of the NT response: ~63%

## Nc1ncnc2c1ncn2[C@@H]1O[C@H](COP(=O)(O)OP(=O)(O)OP(=O)(O)O)[C@@H](O)[C@H]1O [ATP]
[11]
  Stimulation of IP formation by ATP: ~17 fold and > 15 fold

## C(=Cc1ccccc1)c1ccccc1 [stilbene]
ERK
  Effect on NT-induced ERK activation: inactive
PC3 cells
  Effect on NT-induced cell proliferation: inactive

## catechin
[9]
  Efficacy to inhibit growth of cancers from skin, pancreas, liver and breast: inactive
NTR1 [3]
  Efficacy for altering NT binding to NTR: inactive
Melanoma cell growth
  Efficacy to inhibit melanoma cell growth: inactive
Protein kinase C
  Efficacy to inhibit protein kinase C: inactive

## CC(Cc1ccc(O)c(O)c1)C(C)Cc1ccc(O)c(O)c1 (stereo not drawn) [NDGA, Nordihydroguaiaretic acid]
[6]; [17]
  IC50: 7 µM
5-LOX
  IC50: 0.3 to 2 µM
[2]
  Anti-cancer: +
NTR1 [3]; LOX blockers
  NT Binding Efficacy % increase: 230 % increase
NTR1 [3]; [15]
  EC50: 16 µM
NTR1 [3]
  NT Binding Assay: +

## COc1ccc(CCN(C)CCCC(C#N)(c2ccc(OC)c(OC)c2)C(C)C)cc1OC (stereo not drawn) [Verapamil, verapamil]
β2-adrenergic receptor [7]
  Binding (% control ± SEM): 9 ± 2 % control
β2-adrenergic receptor [1]
  % crossreaction (direct competition with ^125I-pindolol): ~0.0005%
[8]
  Binding (% control ± SEM): 91 ± 5 % control

## CCCCCC(O)c1cccc(OCc2ccc3ccccc3n2)c1 (stereo not drawn) [Rev5901]
[6]; [17]
  IC50: 8 µM
5-LOX
  IC50: 10 µM
NTR1 [3]; [15]
  EC50: 19 µM
NTR1 [3]; maximal enhancement of NT binding to PC3 cells
  NT binding increased as much as / up to (fold): ≤ 2.4 fold

## CCCC[C@H](NC(=O)[C@H](CC(C)C)NC(=O)[C@H](Cc1c[nH]cn1)NC(=O)CNC(=O)[C@@H](NC(=O)[C@H](C)NC(=O)[C@H](Cc1c[nH]c2ccccc12)NC(=O)[C@H](CCC(N)=O)NC(=O)[C@H](CC(N)=O)NC(=O)CNC(=O)[C@H](Cc1ccc(O)cc1)NC(=O)[C@H](CCCNC(=N)N)NC(=O)[C@H](CCC(N)=O)NC(=O)[C@@H]1CCC(=O)N1)C(C)C)C(N)=O [^125I-[Nle^14]-bombesin] ([pGlu]QRYGNQWAVGHL[Nle]-NH2; C-terminus assumed)
Bombesin receptor; [18]
  Specific Binding (% of total): 95 % of total
Bombesin receptor; Scatchard analysis
  Bmax: 1016 ± 64 fmol/mg

## CCCCCC#CCC#CCC#CCC#CCCCC(=O)O [ETYA, 5,8,11,14-eicosatetraynoic acid]
[6]; [17]
  IC50: 32 µM
5-LOX
  IC50: 6 to 50 µM
NTR1 [3]; LOX blockers
  NT Binding Efficacy % increase: 100 % increase
NTR1 [3]; [15]
  EC50: 50 µM

## Trp 11 NT(1-13): peptide identical to NT (1-13) except for substitution of tryptophan for tyrosine at amino acid 11 (QLYENKPRRPWIL; Neurotensin; UniProt P30990 151-163, looked up, variant Y11W)
[12]
  Kd: ~0.027 µM
[13]
  Kd: ~0.001 µM

## CCNC(=O)[C@H]1O[C@@H](n2cnc3c(N)nc(NCCc4ccc(CCC(=O)O)cc4)nc32)[C@H](O)[C@@H]1O [CGS21683]
5-LOX
  IC50: 0.01 to 1 µM
NTR1 [3]; [15]
  EC50: 22 µM

## COC(=O)C1=C(C)NC(C)=C(C(=O)OC)C1c1ccccc1[N+](=O)[O-] [NIF, nifedipine]
[8]
  Binding (% control ± SEM): 90 ± 3 % control

## O=c1c(O)c(-c2ccc(O)c(O)c2)oc2cc(O)cc(O)c12 [quercetin]
ERK
  IC50: 25 µM
[2]
  Anti-cancer: +
NTR1 [3]
  NT Binding Assay: +
PC3 cells
  IC50: 0.5 µM

## Oc1ccc(C=Cc2cc(O)cc(O)c2)cc1 [resveratrol]
[6]; [agent] giving 50% decrease in IP formation
  IC50: 48 µM
ERK
  IC50: 50 µM
PC3 cells
  IC50: 3 µM

## O=C(CCc1ccc(O)cc1)c1c(O)cc(O)cc1O [Phloretin]
[6]; [16]
  IC50: 23 µM
[6]
  IP Formation Efficacy (% decrease): 70 % decrease
NTR1 [3]
  EC50: 27 µM
NTR1 [14]
  Internalization rate of prebound cell-surface ^125I-NT: 8.1±0.7 %/minute

## CCOc1ccc(C[C@@H](NC(=O)Cc2ccc(O)c(I)c2)C(=O)N[C@@H](Cc2ccccc2)C(=O)N[C@@H](CCC(N)=O)C(=O)N[C@@H](CC(N)=O)C(=O)N[C@@H](CCCCN)C(=O)N2CCC[C@H]2C(=O)N[C@@H](CCCNC(=N)N)C(N)=O)cc1 [^125I-HOLVA, des-Gly-[Phaal, D-Tyr(Et)2, Lys6, Arg8]-vasopressin] (X1-[dY](Et)FQNKPR-NH2; N-terminus and C-terminus assumed)
[4]; [18]
  Specific Binding (% of total): 77 % of total
[4]; Scatchard analysis
  Bmax: 156 ± 12 fmol/mg
